From patent US6965033B2, “Bisamidate phosphonate prodrugs” (Metabasis Therapeutics, Inc., priority 1999, dated 2005) come the findings set out here.

pIC50: −log10 of the molar value. Where two headings read alike, the source gives them in different places.

One data set deals with rat hepatocytes. Description: Inhibition of Gluconeogenesis in Rat Hepatocytes. The class given is cell-based. As to conditions: isolated rat hepatocytes, 10 mM lactate, 1 mM pyruvate, 1 hour, read-out: IC50 Glucose Production. As for the experimental part: Hepatocytes (75 mg wet weight/ml) were incubated in 1 ml Krebs-bicarbonate buffer containing 10 mM Lactate, 1 mM pyruvate, 1 mg/ml BSA, and test compound concentrations from 1 to 500 μM. […] After 1 hour, an aliquot (0.25 ml) was removed, transferred to an Eppendorf tube and centrifuged. 50 μl of supernatant was then assayed for glucose content using a Sigma Glucose Oxidase kit as per the manufacturer's instructions.

Data set [1] relates to Zucker Diabetic Fatty (ZDF rat). Description: Acute Oral Efficacy in the ZDF Rat. The class given is in vivo. As to conditions: for Blood Glucose, T6h: 6 h after 60 mg/kg oral; for Blood Glucose, % Change: baseline to 6 h, 60 mg/kg oral; for Blood Glucose, Tbaseline: baseline, 60 mg/kg oral group. As for the experimental part:
Methods: ZDF rats were purchased from Genetics Inc (Indianapolis, Ind.) at 8 weeks of age. Animals were maintained under standard vivarium conditions and provided with Purina 5008 chow and water ad libitum. At 10-12 weeks of age, rats with blood glucose levels>500 mg/dl were selected and dosed orally either with vehicle (PEG 400), or prodrug (60 mg/kg). Blood glucose levels were monitored at regular intervals for 6 hours following dosing. Blood samples were taken from tail vein nicks and analyzed by means of a HemoCue glucose analyzer (Hemocue, Mission Viejo, Calif.). Statistical analysis was performed using the Student's t test. Means±standard error of the means are shown.

Data set [2] relates to Human Liver Phosphoramidase. Briefly: Structure Activity Relationship of Human Liver Phosphoramidase (human liver homogenate). The class given is in vitro ADME. Particulars: pH 7.4. As for the experimental part:
Human liver, purchased from the Anatomic Gift Foundation (Laurel, Md.), was homogenized in Krebs-bicarbonate buffer and clarified by a slow-speed centrifugation. Prodrug metabolism was evaluated in reaction mixtures containing human liver homogenate (4 mgs protein), 50 mM Tris-HCl, pH 7.4, 10 mM MgCl2, and 10 mM dithiothreitol. At various time intervals over the course of 2 hours, aliquots were removed from the reaction mixtures and deproteinated by addition of methanol to 60%. Following clarification by centrifugation, metabolites were analyzed by reverse phase HPLC with use of a Beckman Ultrasphere ODS column (4.6×150 mm) equipped with an Alltech All-Guard column. The column was equilibrated with 20 mM potassium phosphate, pH 6.2 and eluted with a linear gradient of 0-60% acetonitrile over 20 minutes at a flow rate of 1.5 mL/min and at a temperature of 40° C. UV absorbance was monitored at 300 nm. Most of the prodrugs evaluated were metabolized via a non-rate limiting, esterase-catalyzed step to their monophosphoramidate form within 5 minutes of incubation. The rate of phosphonic acid appearance was therefore essentially a reflection of the rate of the final […] cleavage step. Results for representative prodrugs for which the esterase-catalyzed step was non-rate limiting are shown below: […]

In the next data set the target is T1, rat liver FBPase (Rattus norvegicus, UniProt P19112).
T1 construct: made in house; host or cells: E. coli BL21
T1 sequence (P19112 2-363 limits assumed): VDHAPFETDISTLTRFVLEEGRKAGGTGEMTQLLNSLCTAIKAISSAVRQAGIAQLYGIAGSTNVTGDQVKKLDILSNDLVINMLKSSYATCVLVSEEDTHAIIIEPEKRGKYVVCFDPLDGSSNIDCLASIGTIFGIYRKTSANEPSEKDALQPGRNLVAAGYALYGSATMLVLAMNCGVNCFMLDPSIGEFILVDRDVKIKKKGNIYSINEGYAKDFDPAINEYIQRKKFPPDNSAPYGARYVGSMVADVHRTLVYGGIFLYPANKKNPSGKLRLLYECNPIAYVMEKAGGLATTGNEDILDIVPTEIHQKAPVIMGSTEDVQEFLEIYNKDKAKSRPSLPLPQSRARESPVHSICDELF
Description: Inhibition of Rat Liver FBPase. The class given is biochemical. Particulars: read-out: IC50 (rlFBPase). As to the method: E. coli strain BL21 transformed with a human liver FBPase-encoding plasmid was obtained from Dr. M. R. El-Maghrabi at the State University of New York at Stony Brook. The enzyme was typically purified from 10 liters of recombinant E. coli culture as described (M. Gidh-Jain et al., 1994, The Journal of Biological Chemistry 269, pp 27732-27738). Enzymatic activity was measured spectrophotometrically in reactions that coupled the formation of product (fructose 6-phosphate) to the reduction of dimethylthiazoldiphenyltetrazolium bromide (MTT) via NADP^+ and phenazine methosulfate (PMS), using phosphoglucose isomerase and glucose 6-phosphate dehydrogenase as the coupling enzymes. Reaction mixtures (200 μl) were made up in 96-well microtitre plates, and consisted of 50 mM Tris-HCl, pH 7.4, 100 mM KCl, 5 mM EGTA, 2 mM MgCl2, 0.2 mM NADP, 1 mg/ml BSA, 1 mM MTT, 0.6 mM PMS, 1 unit/ml phosphoglucose isomerase, 2 units/ml glucose 6-phosphate dehydrogenase, and 0.150 mM substrate (fructose 1,6-bisphosphate). Inhibitor concentrations were varied from 0.01 μM to 10 μM. Reactions were started by the addition of 0.002 units of pure hlFBPase, and were monitored for 7 minutes at 590 nm in a Molecular Devices Plate Reader (37° C.).
E. coli strain BL21 transformed with a rat liver FBPase-encoding plasmid was obtained from Dr. M. R. El-Maghrabi at the State University of New York at Stony Brook. Recombinant FBPase was purified as described (El-Maghrabi, M. R., and Pilkis, S. J. (1991) BioChem. Biophys. Res. Commun. 176, 137-144) The enzyme assay was identical to that described above for human liver FBPase.

In the next data set the target is T2, human liver FBPase (Homo sapiens, UniProt P09467).
T2 construct: made in house; host or cells: E. coli BL21
T2 sequence (P09467 2-338 limits assumed): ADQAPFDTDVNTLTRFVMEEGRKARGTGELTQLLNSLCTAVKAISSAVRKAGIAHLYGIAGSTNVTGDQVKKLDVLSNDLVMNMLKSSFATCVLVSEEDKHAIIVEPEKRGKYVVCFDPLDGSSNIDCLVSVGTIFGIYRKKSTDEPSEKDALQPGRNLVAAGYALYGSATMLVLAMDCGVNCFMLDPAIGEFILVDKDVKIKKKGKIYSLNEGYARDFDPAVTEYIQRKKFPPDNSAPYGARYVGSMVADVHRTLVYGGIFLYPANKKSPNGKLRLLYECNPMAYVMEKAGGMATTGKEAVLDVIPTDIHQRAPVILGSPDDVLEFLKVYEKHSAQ
Description: Inhibition of Human Liver FBPase. The class given is biochemical. As to conditions: read-out: IC50 (hlFBPase). As for the experimental part:
[…] […] Enzymatic activity was measured spectrophotometrically in reactions that coupled the formation of product (fructose 6-phosphate) to the reduction of dimethylthiazoldiphenyltetrazolium bromide (MTT) via NADP^+ and phenazine methosulfate (PMS), using phosphoglucose isomerase and glucose 6-phosphate dehydrogenase as the coupling enzymes. […] Inhibitor concentrations were varied from 0.01 μM to 10 μM. Reactions were started by the addition of 0.002 units of pure hlFBPase, and were monitored for 7 minutes at 590 nm in a Molecular Devices Plate Reader (37° C.).

As to `CCOC(=O)C(C)(C)NP(=O)(NC(C)(C)C(=O)OCC)c1ccc(-c2nc(N)sc2CC(C)C)o1` [Compound 50.9], in the data set on rat hepatocytes, the pIC50 is 5.66. Moreover, in data set [1], the “Blood Glucose, T6h” value stood at 410 ± 18 mg/dL; the “Blood Glucose, % Change” value was −32%; the “Blood Glucose, Tbaseline” value is 602 ± 26 mg/dL.
As for `CCCSc1sc(N)nc1-c1ccc(P(=O)(N[C@@H](COC(C)(C)C)C(=O)OC)N[C@@H](COC(C)(C)C)C(=O)OC)o1` [Compound 52.8, 2-Amino-5-propylthio-4-{2-[5-(N,N′-bis(S)-1-methoxycarbonyl-2-(t-butoxy)ethyl)phosphonamido]furanyl}thiazole], in data set [2], the “Phosphoramidase Activity (Rate of 3.1 or 3.58 production, nmoles/mn/mg liver protein)” value (“Phosphoramidase Activity” for short) was 0.025 nmoles/mn/mg liver protein.
On to `CCOC(=O)CNP(=O)(NCC(=O)OCC)c1ccc(-c2nc(N)sc2CC(C)C)o1` [Compound 50.8], for which the “Phosphoramidase Activity” value in data set [2] is 0.019 nmoles/mn/mg liver protein.
Turning to `CCOC(=O)[C@H](Cc1ccccc1)NP(=O)(N[C@@H](Cc1ccccc1)C(=O)OCC)c1ccc(-c2nc(N)sc2CC(C)C)o1` [Compound 50.19, 2-Amino-5-isobutyl-4-{2-[5-(N,N′-bis((S)-1-ethoxycarbonyl-2-phenyl)ethyl)phosphonamido]furanyl}thiazole], the “Phosphoramidase Activity” value in data set [2] was 0.029 nmoles/mn/mg liver protein.
Consider `CCCc1oc(N)nc1-c1ccc(P(=O)(O)O)o1` [Compound 10.2, 2-Amino-5-propyl-4-[2-(5-phosphono)furanyl]oxazole], for which the negative-log IC50 (pIC50) on rat liver FBPase is 5.60; in the data set with rat hepatocytes (Hepatocyte), 4.80.
Take `CCCSc1sc(N)nc1-c1ccc(P(=O)(NC2(C(=O)OCC)CCCC2)NC2(C(=O)OCC)CCCC2)o1` [Compound 52.12, 2-Amino-propylthio-4-[2-{5-(N,N′-bis(1-ethoxycarbonyl)cyclopentyl)phosphonamido}furanyl]thiazole]: the “Phosphoramidase Activity” value in data set [2] is listed as 0.032 nmoles/mn/mg liver protein.
Consider `Cc1nc(-c2ccc(P(=O)(O)O)o2)c(CC(C)C)s1` [Compound 3.2, 2-Methyl-5-isobutyl-4-[2-(5-phosphono)furanyl]thiazole], for which the pIC50 on rat liver FBPase was 5.60; with rat hepatocytes (Hepatocyte) it was 4.59.
With `CC(C)Cc1sc(N)nc1-c1ccc(P(=O)(N[C@@H](C)C(=O)OCc2ccccc2)N[C@@H](C)C(=O)OCc2ccccc2)o1` [Compound 50.2, 2-Amino-5-isobutyl-4-[2-(5-N,N-bis(L-alanine acid dibenzyl ester)phosphonoamido)furanyl]thiazole], the pIC50 with rat hepatocytes is 5.68. In data set [1], the “Blood Glucose, T6h” value amounted to 415 ± 15 mg/dL; the “Blood Glucose, % Change” value is listed as −30%; the “Blood Glucose, Tbaseline” value stood at 591 ± 35 mg/dL.
As to `Nc1ccc(C2CC2)c(-c2ccc(P(=O)(O)O)o2)n1` [Compound 15.20, 2-Amino-5-cyclopropyl-6-[2-(5-phosphono)furanyl]pyridine], the pIC50 is 7.40 on human liver FBPase and 6.22 on rat liver FBPase.
`CCCSc1oc(N)nc1-c1ccc(P(=O)(O)O)o1` [Compound 10.43, 2-Amino-5-propylthio-4-[2-(5-phosphono)furanyl]oxazole]: the figures for the pIC50 on human liver FBPase and on rat liver FBPase were 7.15 and 6.10, respectively.
For the compound `CCCSc1sc(N)nc1-c1ccc(P(=O)(N[C@@H](CCC)C(=O)OCC)N[C@@H](CCC)C(=O)OCC)o1` [Compound 52.16], the “Phosphoramidase Activity” value in data set [2] is reported as 0.033 nmoles/mn/mg liver protein.
As for `CCOC(=O)c1oc(N)nc1-c1ccc(P(=O)(O)O)o1` [Compound 10.27, 2-Amino-5-ethoxycarbonyl-4-[2-(5-phosphono)furanyl]oxazole], the pIC50 is 7.42 at human liver FBPase and 5.54 on rat liver FBPase.
Turning to `COC(=O)[C@H](CC(C)C)NP(=O)(N[C@@H](CC(C)C)C(=O)OC)c1ccc(-c2nc(N)sc2CC(C)C)o1` [Compound 50.12, 2-Amino-5-isobutyl-4-{2-[5-(N,N′-bis((S)-1-methoxycarbonyl-3-methyl)butyl)phosphonamido]furanyl}thiazole], the “Phosphoramidase Activity” value in data set [2] is recorded as 0.022 nmoles/mn/mg liver protein.
The same measure, in the same setting: then `CCCSc1sc(N)nc1-c1ccc(P(=O)(NC(C)C(=O)OC(C)C)NC(C)C(=O)OC(C)C)o1` (stereo not drawn) [Compound 50.20, 2-Amino-5-propylthio-4-{2-[5-(N,N′-(1-methyl-ethoxycarbonyl)ethyl)phosphonamido]furanyl}thiazole], with 0.085 nmoles/mn/mg liver protein.
`CCCc1cnc(N)nc1-c1ccc(P(=O)(O)O)o1` [Compound 16.1, 2-amino-5-propyl-4-[2-(5-phosphono)furanyl]pyrimidine] displayed a melting point of 258 to 259 °C. The pIC50 on human liver FBPase was 7.22. At rat liver FBPase, the pIC50 was 5.74. Moreover, in the data set with rat hepatocytes (Hepatocyte), the pIC50 was 5.00.
As for `CCOC(=O)CN(C)P(=O)(c1ccc(-c2nc(N)sc2CC(C)C)o1)N(C)CC(=O)OCC` [Compound 50.10, 2-Amino-5-isobutyl-4-{2-[5-(N,N′-bis(ethoxycarbonylmethyl)-N,N′-dimethylphosphonamido)]furanyl}thiazole], in data set [2], the “Phosphoramidase Activity” value is given as 0.005 nmoles/mn/mg liver protein.
